System: B.breve 2258
Experiment: Growth inhibition of B.breve 2258 by trilinolein compared with free linoleic acid
Format: cell-based, Bifidobacterium breve
Conditions: compared with similar concentrations of free linoleic acid
Description: B.breve NCFB 2258 was further investigated for ability to utilise triglyceride bound linoleic acid as substrate for CLA production. B.breve NCFB 2258 was inoculated from a fully grown culture into MRS broth with added cysteine (0.05%) and trilinolein (C18:2, cis-9, cis-12, 99% pure, Sigma Chemical Co.), soybean oil and sunflower oil (purchased from a local grocery store) containing known linoleic acid concentrations. The triglyceride mixtures were sterile-filtered through 0.45 μm […] filters and added as 5 mg/ml aqueous solutions in 2.5% (v/v) Tween 80. Substantial vortexing was required to dissolve the fat particles. The volume of the triglyceride stock solutions added was calculated to give a final concentration of 0.2 mg linoleic acid/ml of broth. B.breve 2258 was inoculated into MRS broth in the presence of the triglyceride substrates under anaerobic conditions at 37° C. and incubated for 48 h.

Question: How did the “growth inhibition of B.breve 2258” value turn out when CCCCC/C=C\C/C=C\CCCCCCCC(=O)OCC(COC(=O)CCCCCCC/C=C\C/C=C\CCCCC)OC(=O)CCCCCCC/C=C\C/C=C\CCCCC [trilinolein] was run?
Answer: The value was “did not inhibit the growth of B.breve 2258 to the same extent as similar concentrations of free linoleic acid”.
